One compound from publication PMC4742234, “Screening of Drug Metabolizing Enzymes for the Ginsenoside Compound K In Vitro: An Efficient Anti-Cancer Substance Originating from Panax Ginseng” (PLoS ONE, 2016) can be followed below.

Molecules are shown by their SMILES. “And” between values parts separate entries of the source, which are not always exact repeats. Identical values can stand only once.

Common to all, as to type: in vitro ADME
Data set [1] in a line: Kinetic analysis of CK metabolism in human liver microsomes. The settings on record: human, human liver microsomes, pH 7.4, HLMs 0.5 mg/mL, CK 10–100 μM, 37°C, NADPH. How it is done: (§1) The method was conducted according to our previous study with some modifications. The CYP isoform-specific probe reactions used were phenacetin O-deethylation (for CYP1A2), coumarin 7-hydroxylation (for CYP2A6), tolbutamide 4-hydroxylation (for CYP2C9), metoprolol α-hydroxylation (for CYP2D6), chlorzoxazone 6-hydroxylation (for CYP2E1),S-Mephenytoin 4-hydroxylation (for CYP2C19), and midazolam 1-hydroxylation (for CYP3A4). The kinetic study of CK was conducted with HLMs. A 0.2 mL incubation mixture that consisted of CK (as a substrate), the HLMs (0.5 mg/mL) or CYP isoforms (10 pmol), and 0.1 M sodium phosphate buffer (pH 7.4) was pre-warmed for 5 min at 37°C. The reaction was initiated by the addition of 1 mg/mL triphosphopyridine nucleotide (NADPH). All the reagents were dissolved in methanol, and the final solvent concentration in all incubations (including the controls) was 1%. The final incubations were performed in a shaking water bath (37°C) for 30 min. The reactions were stopped by adding 0.2 mL ice-cold acetonitrile, which contains irbesartan (114.9 ng/mL) as the internal standard. The samples were vortexed for 5 min. After centrifugation (12000×g for 10 min), the supernatants were transferred, and aliquots of 20 μL were injected into the HPLC-MS/MS system for analysis. […]

In data set [2] the test system is human liver microsomes (HLMs). The data set is described as above. The settings on record: HLMs 0.5 mg/mL, CK 10–100 μM, 37°C, 30 min, NADPH. How it is done:
as §1

In the next data set the target is CYP3A4 (Homo sapiens, UniProt P08684). The experiment in a line: Kinetic analysis of CK metabolism by recombinant CYP3A4. The arrangement: purchased Cypex Ltd. (U.K.). Conditions: recombinant CYP3A4 10 pmol, CK 10–100 μM. The procedure:
The method was conducted according to our previous study with some modifications. The CYP isoform-specific probe reactions used were phenacetin O-deethylation (for CYP1A2), coumarin 7-hydroxylation (for CYP2A6), tolbutamide 4-hydroxylation (for CYP2C9), metoprolol α-hydroxylation (for CYP2D6), chlorzoxazone 6-hydroxylation (for CYP2E1),S-Mephenytoin 4-hydroxylation (for CYP2C19), and midazolam 1-hydroxylation (for CYP3A4). The kinetic study of CK was conducted with HLMs. A 0.2 mL incubation mixture that consisted of CK (as a substrate), the HLMs (0.5 mg/mL) or CYP isoforms (10 pmol), and 0.1 M sodium phosphate buffer (pH 7.4) was pre-warmed for 5 min at 37°C. The reaction was initiated by the addition of 1 mg/mL triphosphopyridine nucleotide (NADPH). […]
The kinetic parameters for the metabolism of CK were determined by incubating increasing concentrations of CK (10–100 μM) at 37°C with the HLMs and NADPH under the incubation conditions as described in detail previously. The equation of CK reaction velocity (V) in the HLMs or CYP isoforms is expressed as V = (C0–Ct)/T/Cp, where C0and Ct are the initial and final concentrations of CK in the incubation solution, respectively, T is the incubation time (min), and Cp is the protein concentration (mg/mL or nmol). All values were expressed as the mean±standard deviation (SD). […]

CYP3A4, sequence (P08684 whole entry, canonical isoform): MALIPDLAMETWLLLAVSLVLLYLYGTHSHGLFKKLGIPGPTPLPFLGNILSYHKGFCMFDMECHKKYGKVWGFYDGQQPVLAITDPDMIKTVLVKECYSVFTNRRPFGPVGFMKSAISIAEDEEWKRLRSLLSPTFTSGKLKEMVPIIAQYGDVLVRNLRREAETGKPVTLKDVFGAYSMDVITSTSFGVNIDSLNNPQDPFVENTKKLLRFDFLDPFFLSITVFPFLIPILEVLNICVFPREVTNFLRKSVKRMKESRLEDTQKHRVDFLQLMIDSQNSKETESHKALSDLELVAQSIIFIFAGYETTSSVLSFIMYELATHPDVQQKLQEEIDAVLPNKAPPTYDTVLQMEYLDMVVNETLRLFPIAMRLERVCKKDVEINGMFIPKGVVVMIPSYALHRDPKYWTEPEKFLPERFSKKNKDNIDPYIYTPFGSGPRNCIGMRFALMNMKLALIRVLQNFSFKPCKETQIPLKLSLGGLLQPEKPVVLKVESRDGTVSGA

What is called Km is the substrate concentration at which the rate is half of its maximum. With `CC(C)=CCC[C@](C)(OC1O[C@H](CO)[C@@H](O)[C@H](O)[C@H]1O)[C@H]1CC[C@]2(C)[C@@H]1[C@H](O)C[C@@H]1[C@@]3(C)CC[C@H](O)C(C)(C)[C@@H]3CC[C@]12C` (stereo partly drawn) [CK, 20-O-β-(D-glucopyranosyl)-20(S)-protopanaxadiol], in data set [1], the Km at 30 min turned out to be 84.2 ± 21.9 µM. In addition, the “Vmax of CK metabolism” value in data set [2] is 0.28±0.04 nmol/mg protein/min and 0.2840 nmol/mg protein/min; at CYP3A4 it was 0.68±0.04 nmol/nmol P450/min and 0.6756 nmol/nmol P450/min.
